Laboratory results as given in paper PMC5283093 (European journal of medicinal chemistry, 2016).

Assays:
HIV-1 integrase (IN) = HIV-1 integrase (IN) (Human immunodeficiency virus type 1 group M subtype B, UniProt P12497); test: HTRF-based LEDGF/p75 independent 3′-processing assay; format: biochemical
HEK293T cells = details: without viral infection (Fig. 4B)

| SMILES | inhibition of IN 3′processing activity in the absence of LEDGF/p75 (in words) (HIV-1 integrase (IN)) | cellular toxicity in words (HEK293T cells) |
| --- | --- | --- |
| O=C(O)c1cc(N(Cc2ccccc2)Cc2ccccc2)ccc1O [Compound 1, 5-(Dibenzylamino)-2-hydroxybenzoic acid] | weak inhibitions | – |
| O=C(O)c1cc(N(Cc2ccccc2Cl)Cc2ccccc2Cl)ccc1O [Compound 2, 5-[Bis(2-chlorobenzyl)amino]-2-hydroxybenzoic acid] | weak inhibitions | significant cellular toxicity |
| O=C(O)c1cc(N(Cc2ccccc2F)Cc2ccccc2F)ccc1O [Compound 5, 5-[Bis(2-fluorobenzyl)amino]-2-hydroxybenzoic acid] | weak inhibitions | – |
| O=C(O)c1cc(N(Cc2cccc(F)c2)Cc2cccc(F)c2)ccc1O [Compound 6, 5-[Bis(3-fluorobenzyl)amino]-2-hydroxybenzoic acid] | weak inhibitions | – |
